# Reference: paper PMC11206519, “Multi-Endpoint Toxicological Assessment of Chrysin Loaded Oil-in-Water Emulsion System in Different Biological Models” (Nanomaterials, 2024)
# Experiments:
# RAW 264.7 = test: MTT cytotoxicity assay; type: cell-based, murine; conditions: Mus musculus, RAW264.7, 48 h
# Experimental: RAW 264.7 (murine macrophage-like cell), 3T3-L1 adipocyte (murine adipocyte), HEK293 (human embryonic kidney cell), and LX-2 (human hepatic stellate cell) were obtained from American Type Culture Collection (ATCC, Manassas, VA, USA). RAW 264.7 macrophages were cultured as a suspension culture in an ultra-low attachment culture dish, whereas the others were cultured as adherent cells in a cell culture flask. The cells were grown in Dulbecco’s Modified Eagle Medium (DMEM) with L-glutamine, supplemented with 10% fetal bovine serum (FBS) (RAW 264.7, HEK293, and LX-2) or 10% fetal calf serum (FCS) (3T3-L1) and 1% penicillin under 5% CO2, at 37 °C. […] Blank-ES was used as a vehicle control. The amount of blank-ES was equal to chrysin-ES amount that was used for the treatment. The cytotoxicity of chrysin, chrysin-ES, and blank-ES in each cell was determined using an MTT assay. […] Then, the solution was gently removed, and the formazan crystal was dissolved with dimethyl sulfoxide (DMSO). The soluble formazan was measured using a microplate reader (Bio-TEK Synergy Hybrid Reader H4) at 540 nm. The cell viability is directly related to the absorbance of formazan. The percentage of cell viability was calculated using the following equation. Cell viability (%) = (Absorbance (sample))/(Absorbance (control)) × 100
# Sprague Dawley rats = conditions: ref 45 (Yao et al.), cited from earlier work
# [1] = tested on: D. melanogaster trans-heterozygous mwh+/+flr3 larvae of the HB cross; test: SMART wing spot test, anti-mutagenicity, HB cross
# Experimental: The somatic mutation and recombination test, or the wing spot test, using D. melanogaster was employed as an in vivo system to assess the mutagenicity and anti-mutagenicity of chrysin-ES. Two different crosses were conducted: (i) a standard cross (ST) and (ii) a high bioactivation cross (HB). The standard cross larvae were obtained from virgin female of flr3/TM3, Ser crossed with males of mwh/mwh, while the HB cross larvae expressing cytochrome P450 enzymes involved in xenobiotic biotransformation were obtained from virgin females of ORR/ORR; flr^3/In (3LR) TM3, ri p^psep l (3)89Aa bx^34e e Bd^s crossed with males of mwh/mwh. The flies were cultured at a constant temperature of 25 ± 1 °C and 60–70% RH at photoperiod 12:12 (light/dark). To evaluate the mutagenicity of chrysin and chrysin-ES, a hundred larva F1 progenies derived from the above crossing were fed with instant Drosophila medium (Formula 4-24®), Carolina, Burlington, NC, USA) containing chrysin or chrysin-ES (20–120 µg/mL). DI was used as a negative control, while 20 mM urethane (URE) was used as a positive control. The larvae were reared on each medium until pupation at 25 °C. After that, forty wings of surviving flies in each group were collected for mutant analysis. The mutant spots on the wings, including small single spots, large single spots, and twin spots, were counted. The statistical significance was calculated as previously described by Frei and Würgler.
# Furthermore, the anti-mutagenicity of the samples was performed by a similar procedure as mentioned above.
# [2] = NMU (sodium nitrite 36 mM: methylurea 10 mM) + 20 μg/mL
structure (smiles),measurement,setting,value
"O=c1cc(-c2ccccc2)oc2cc(O)cc(O)c12 [Chrysin, 5,7-dihydroxyflavone]",IC20,RAW 264.7; decreases cell viability by 20%,~43 µM
same,IC50,RAW 264.7; decreases cell viability by 50%,~69 µM
same,mortality,Sprague Dawley rats; single oral 5000 mg/kg BW,40%
same,LD50,Sprague Dawley rats; single oral administration,~5000 mg/kg BW
same,Inhibition (%),[1]; EMS 5 mM + 20 μg/mL,25%
same,Inhibitory Classification,[1]; EMS 5 mM + 20 μg/mL,Weak
same,"Mutant spots per individual (number of spots), Large Single",[1]; EMS 5 mM + 20 μg/mL,1.63 (65)
same,"Mutant spots per individual (number of spots), Small Single",[1]; EMS 5 mM + 20 μg/mL,5.3 (212)
same,"Mutant spots per individual (number of spots), Total",[1]; EMS 5 mM + 20 μg/mL,7.80 (312)
same,"Mutant spots per individual (number of spots), Twin",[1]; EMS 5 mM + 20 μg/mL,0.88 (35)
same,Inhibition (%),[1]; EMS 5 mM + 40 μg/mL,31%
same,Inhibitory Classification,[1]; EMS 5 mM + 40 μg/mL,Weak
same,"Mutant spots per individual (number of spots), Large Single",[1]; EMS 5 mM + 40 μg/mL,0.78 (31)
same,"Mutant spots per individual (number of spots), Small Single",[1]; EMS 5 mM + 40 μg/mL,6.03 (241)
same,"Mutant spots per individual (number of spots), Total",[1]; EMS 5 mM + 40 μg/mL,7.13 (285)
same,"Mutant spots per individual (number of spots), Twin",[1]; EMS 5 mM + 40 μg/mL,0.33 (13)
same,Inhibition (%),[1]; EMS 5 mM + 80 μg/mL,60%
same,Inhibitory Classification,[1]; EMS 5 mM + 80 μg/mL,Moderate
same,"Mutant spots per individual (number of spots), Large Single",[1]; EMS 5 mM + 80 μg/mL,0.73 (29)
same,"Mutant spots per individual (number of spots), Small Single",[1]; EMS 5 mM + 80 μg/mL,3.23 (129)
same,"Mutant spots per individual (number of spots), Total",[1]; EMS 5 mM + 80 μg/mL,4.18 (167)
same,"Mutant spots per individual (number of spots), Twin",[1]; EMS 5 mM + 80 μg/mL,0.23 (9)
same,Inhibition (%),[1]; EMS 5 mM + 120 μg/mL,76%
same,Inhibitory Classification,[1]; EMS 5 mM + 120 μg/mL,Strong
same,"Mutant spots per individual (number of spots), Large Single",[1]; EMS 5 mM + 120 μg/mL,0.20 (8)
same,"Mutant spots per individual (number of spots), Small Single",[1]; EMS 5 mM + 120 μg/mL,2.20 (88)
same,"Mutant spots per individual (number of spots), Total",[1]; EMS 5 mM + 120 μg/mL,2.53 (101)
same,"Mutant spots per individual (number of spots), Twin",[1]; EMS 5 mM + 120 μg/mL,0.13 (5)
same,Inhibition (%),[1]; MMC 0.05 mM + 20 μg/mL,5%
same,Inhibitory Classification,[1]; MMC 0.05 mM + 20 μg/mL,Negligible
same,"Mutant spots per individual (number of spots), Large Single",[1]; MMC 0.05 mM + 20 μg/mL,0.85 (34)
same,"Mutant spots per individual (number of spots), Small Single",[1]; MMC 0.05 mM + 20 μg/mL,3.70 (148)
same,"Mutant spots per individual (number of spots), Total",[1]; MMC 0.05 mM + 20 μg/mL,4.65 (186)
same,"Mutant spots per individual (number of spots), Twin",[1]; MMC 0.05 mM + 20 μg/mL,0.10 (4)
same,Inhibition (%),[1]; MMC 0.05 mM + 40 μg/mL,60%
same,"Mutant spots per individual (number of spots), Large Single",[1]; MMC 0.05 mM + 40 μg/mL,0.18 (7)
same,"Mutant spots per individual (number of spots), Small Single",[1]; MMC 0.05 mM + 40 μg/mL,1.63 (65)
same,"Mutant spots per individual (number of spots), Total",[1]; MMC 0.05 mM + 40 μg/mL,1.93 (77)
same,"Mutant spots per individual (number of spots), Twin",[1]; MMC 0.05 mM + 40 μg/mL,0.13 (5)
same,Inhibition (%),[1]; MMC 0.05 mM + 80 μg/mL,79%
same,Inhibitory Classification,[1]; MMC 0.05 mM + 80 μg/mL,Strong
same,"Mutant spots per individual (number of spots), Large Single",[1]; MMC 0.05 mM + 80 μg/mL,0.08 (3)
same,"Mutant spots per individual (number of spots), Small Single",[1]; MMC 0.05 mM + 80 μg/mL,0.98 (39)
same,"Mutant spots per individual (number of spots), Total",[1]; MMC 0.05 mM + 80 μg/mL,1.05 (42)
same,"Mutant spots per individual (number of spots), Twin",[1]; MMC 0.05 mM + 80 μg/mL,0 (0)
same,Inhibition (%),[1]; MMC 0.05 mM + 120 μg/mL,88%
same,Inhibitory Classification,[1]; MMC 0.05 mM + 120 μg/mL,Strong
same,"Mutant spots per individual (number of spots), Large Single",[1]; MMC 0.05 mM + 120 μg/mL,0.03 (1)
same,"Mutant spots per individual (number of spots), Small Single",[1]; MMC 0.05 mM + 120 μg/mL,0.55 (22)
same,"Mutant spots per individual (number of spots), Total",[1]; MMC 0.05 mM + 120 μg/mL,0.58 (23)
same,"Mutant spots per individual (number of spots), Twin",[1]; MMC 0.05 mM + 120 μg/mL,0 (0)
same,Inhibition (%),[1]; [2],54%
same,Inhibitory Classification,[1]; [2],Moderate
same,"Mutant spots per individual (number of spots), Large Single",[1]; [2],0.09 (3)
same,"Mutant spots per individual (number of spots), Small Single",[1]; [2],0.78 (25)
same,"Mutant spots per individual (number of spots), Total",[1]; [2],0.88 (28)
same,"Mutant spots per individual (number of spots), Twin",[1]; [2],0 (0)
same,Inhibitory Classification,"[1]; NMU (sodium nitrite 36 mM: methylurea 10 mM) + 20 μg/mL, listed as chrysin",moderate (41–60%)
same,Inhibition (%),[1]; NMU + 40 μg/mL,80%
same,Inhibitory Classification,[1]; NMU + 40 μg/mL,Strong
same,"Mutant spots per individual (number of spots), Large Single",[1]; NMU + 40 μg/mL,0.05 (2)
same,"Mutant spots per individual (number of spots), Small Single",[1]; NMU + 40 μg/mL,0.30 (12)
same,"Mutant spots per individual (number of spots), Total",[1]; NMU + 40 μg/mL,0.38 (15)
same,"Mutant spots per individual (number of spots), Twin",[1]; NMU + 40 μg/mL,0.03 (1)
same,Inhibition (%),[1]; NMU + 80 μg/mL,81%
same,Inhibitory Classification,[1]; NMU + 80 μg/mL,Strong
same,"Mutant spots per individual (number of spots), Large Single",[1]; NMU + 80 μg/mL,0.04 (1)
same,"Mutant spots per individual (number of spots), Small Single",[1]; NMU + 80 μg/mL,0.32 (9)
same,"Mutant spots per individual (number of spots), Total",[1]; NMU + 80 μg/mL,0.36 (10)
same,"Mutant spots per individual (number of spots), Twin",[1]; NMU + 80 μg/mL,0 (0)
same,Inhibition (%),[1]; NMU + 120 μg/mL,95%
same,Inhibitory Classification,[1]; NMU + 120 μg/mL,Strong
same,"Mutant spots per individual (number of spots), Large Single",[1]; NMU + 120 μg/mL,0.05 (2)
same,"Mutant spots per individual (number of spots), Small Single",[1]; NMU + 120 μg/mL,0.05 (2)
same,"Mutant spots per individual (number of spots), Total",[1]; NMU + 120 μg/mL,0.10 (4)
same,"Mutant spots per individual (number of spots), Twin",[1]; NMU + 120 μg/mL,0 (0)
same,Inhibition (%),[1]; URE 20 mM + 20 μg/mL,84%
same,Inhibitory Classification,[1]; URE 20 mM + 20 μg/mL,Strong
same,"Mutant spots per individual (number of spots), Large Single",[1]; URE 20 mM + 20 μg/mL,0.15 (6)
same,"Mutant spots per individual (number of spots), Small Single",[1]; URE 20 mM + 20 μg/mL,1.55 (62)
same,"Mutant spots per individual (number of spots), Total",[1]; URE 20 mM + 20 μg/mL,1.70 (68)
same,"Mutant spots per individual (number of spots), Twin",[1]; URE 20 mM + 20 μg/mL,0 (0)
same,Inhibition (%),[1]; URE 20 mM + 40 μg/mL,84%
same,Inhibitory Classification,[1]; URE 20 mM + 40 μg/mL,Strong
same,"Mutant spots per individual (number of spots), Large Single",[1]; URE 20 mM + 40 μg/mL,0 (0)
same,"Mutant spots per individual (number of spots), Small Single",[1]; URE 20 mM + 40 μg/mL,1.75 (70)
same,"Mutant spots per individual (number of spots), Total",[1]; URE 20 mM + 40 μg/mL,1.75 (70)
same,"Mutant spots per individual (number of spots), Twin",[1]; URE 20 mM + 40 μg/mL,0 (0)
same,Inhibition (%),[1]; URE 20 mM + 80 μg/mL,92%
same,Inhibitory Classification,[1]; URE 20 mM + 80 μg/mL,Strong
same,"Mutant spots per individual (number of spots), Large Single",[1]; URE 20 mM + 80 μg/mL,0.03 (1)
same,"Mutant spots per individual (number of spots), Small Single",[1]; URE 20 mM + 80 μg/mL,0.88 (35)
same,"Mutant spots per individual (number of spots), Total",[1]; URE 20 mM + 80 μg/mL,0.90 (36)
same,"Mutant spots per individual (number of spots), Twin",[1]; URE 20 mM + 80 μg/mL,0 (0)
same,Inhibition (%),[1]; URE 20 mM + 120 μg/mL,89%
same,Inhibitory Classification,[1]; URE 20 mM + 120 μg/mL,Strong
same,"Mutant spots per individual (number of spots), Large Single",[1]; URE 20 mM + 120 μg/mL,0.08 (3)
same,"Mutant spots per individual (number of spots), Small Single",[1]; URE 20 mM + 120 μg/mL,1.08 (43)
same,"Mutant spots per individual (number of spots), Total",[1]; URE 20 mM + 120 μg/mL,1.18 (47)
same,"Mutant spots per individual (number of spots), Twin",[1]; URE 20 mM + 120 μg/mL,0.03 (1)
